From patent US8883827B2, “Azole derivatives as WTN pathway inhibitors” (Oslo University Hospital HF, priority 2009, dated 2014)

Assays:
SW480 cells = assay: Illumina microarray gene expression analysis; format: cell-based
Method: A microarray analysis using an Illumina® array was performed in triplicate to investigate differential gene expression in cells treated with a Wnt pathway inhibitor. […] In vitro transcription reactions were incubated overnight (14 hr). Labeled cRNA was hybridized to Illumina® Human-6 v3 BeadChips (Illumina, San Diego, Calif.) at 58° C. overnight, according to the Illumina® Whole-Genome Gene Expression Protocol for BeadStation (Doc. #11226030.rev.C, Illumina Inc.). The hybridized BeadChip was stained with streptavidin-Cy3 (Amersham™, PA43001) for visualization and scanned with an Illumina® BeadArray Reader. The scanned images were imported into BeadStudio 3.1.3.0 (Illumina Inc) for extraction and quality control. A criterion of 0.5-fold change in expression was applied to the analysis. […] A list of differentially expressed genes of interest is given below in tables 1 and 2. […] Many known Wnt target genes (column 3) were influenced in treated cells. Some genes were influenced that are also affected in Ls174T colorectal cancer cells expressing an inducible dominant negative form of TCF-4 (column 4) (van de Wetering et al., Mol. Cell. Biol. (2008) 28(8), p. 2732-44). Other influenced genes that are important for cell cycle control and other genes correlated to regulated canonical Wnt signaling are also shown. The degree of modulation (column 5) is an indication of the degree of change between the non-treated and compound No. 1 treated samples.

CDK2/cyclinA(h) = target: T1, CDK2/cyclinA(h) (Homo sapiens, UniProt P24941); assay: Kinase screen; format: biochemical; conditions: 0.1% DMSO control = 100%
T1 construct: purchased Millipore (KinaseProfiler service)

canonical Wnt signaling = assay: ST-Luc (SuperTOPFlash) Luciferase assay in HEK293 cells, 30% Wnt3a-CM; format: cell-based; conditions: Homo sapiens, 24 h
In short: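 HEK293 cells were transiently co-transfected with SuperTOPFlash firefly luciferase and pRL-TK Renilla reporters, then treated 24 h with 10 μM compound in 30% Wnt3a-conditioned medium. Dual luciferase activity was read, and percent activity was expressed relative to DMSO control.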

MAPK2(h) = target: T2, MAPK2(h) (Homo sapiens, UniProt P28482); assay: Kinase screen; format: biochemical; conditions: 0.1% DMSO control = 100%
T2 construct: purchased Millipore (KinaseProfiler service)
T2 sequence (P28482 whole entry): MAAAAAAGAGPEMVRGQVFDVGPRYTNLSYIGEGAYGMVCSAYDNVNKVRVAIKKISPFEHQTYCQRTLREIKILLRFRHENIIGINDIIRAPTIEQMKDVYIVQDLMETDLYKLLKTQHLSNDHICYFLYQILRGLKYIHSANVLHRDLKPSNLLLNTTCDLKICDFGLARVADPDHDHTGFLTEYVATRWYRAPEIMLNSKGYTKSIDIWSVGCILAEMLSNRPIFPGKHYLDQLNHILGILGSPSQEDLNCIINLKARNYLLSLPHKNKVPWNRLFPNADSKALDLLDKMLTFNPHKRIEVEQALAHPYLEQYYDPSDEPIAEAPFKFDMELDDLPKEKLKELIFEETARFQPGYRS

SHP-1(h) = target: T3, SHP-1(h) (Homo sapiens, UniProt P29350); assay: Phosphatase screen; format: biochemical; conditions: 0.1% DMSO control = 100%
T3 construct: purchased Millipore (KinaseProfiler service)
T3 sequence (P29350 whole entry): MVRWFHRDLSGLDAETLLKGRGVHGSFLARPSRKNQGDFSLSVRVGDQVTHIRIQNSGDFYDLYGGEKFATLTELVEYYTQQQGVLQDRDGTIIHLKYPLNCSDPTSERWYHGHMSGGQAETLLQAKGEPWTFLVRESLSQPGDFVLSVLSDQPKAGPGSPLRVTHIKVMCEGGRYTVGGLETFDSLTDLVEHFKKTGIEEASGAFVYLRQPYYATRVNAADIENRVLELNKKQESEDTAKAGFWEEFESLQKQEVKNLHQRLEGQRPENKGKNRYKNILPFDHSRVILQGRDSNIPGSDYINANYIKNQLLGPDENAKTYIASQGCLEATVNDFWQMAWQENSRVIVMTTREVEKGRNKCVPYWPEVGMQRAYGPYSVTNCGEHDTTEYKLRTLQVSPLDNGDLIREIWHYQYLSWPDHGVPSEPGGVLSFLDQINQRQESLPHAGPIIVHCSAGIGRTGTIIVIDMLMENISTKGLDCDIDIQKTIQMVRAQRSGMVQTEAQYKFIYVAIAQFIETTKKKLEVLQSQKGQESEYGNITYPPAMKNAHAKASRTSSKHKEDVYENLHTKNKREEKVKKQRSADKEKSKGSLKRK

## COc1ccc(-n2c(SCc3nc(-c4ccc(C)cc4)no3)nnc2-c2ccncc2)cc1 [Compound 1]
SW480 cells; x at 10 μM and 25 μM
  Degree of modulation: CCAAT/enhancer binding protein (C/EBP), delta: − (moderate down-regulation (log^2 ratio of between −0.5 and −1.0))
  Degree of modulation: Kruppel-like factor 4 (gut): + (moderate up-regulation (log^2 ratio of between 0.5 and 1.0))
  Degree of modulation: Kruppel-like factor 6: ++ (strong up-regulation (log^2 ratio of between 1.0 and 1.5))
  Degree of modulation: LY6/PLAUR domain containing 5: −−− (very strong down-regulation (log^2 ratio of between −1.5 and −2))
  Degree of modulation: LY6/PLAUR domain containing 6B: ++ (strong up-regulation (log^2 ratio of between 1.0 and 1.5))
  Degree of modulation: SPANXA1: −−− (very strong down-regulation (log^2 ratio of between −1.5 and −2))
  Degree of modulation: SPANXB2: −−− (very strong down-regulation (log^2 ratio of between −1.5 and −2))
  Degree of modulation: SPANXC: −−− (very strong down-regulation (log^2 ratio of between −1.5 and −2))
  Degree of modulation: SPANXE: −−− (very strong down-regulation (log^2 ratio of between −1.5 and −2))
  Degree of modulation: SRY (sex determining region Y)-box 18: − (moderate down-regulation (log^2 ratio of between −0.5 and −1.0))
  Degree of modulation: TEA domain family member 4: − (moderate down-regulation (log^2 ratio of between −0.5 and −1.0))
  Degree of modulation: WNT1 inducible signaling pathway protein 3: + (moderate up-regulation (log^2 ratio of between 0.5 and 1.0))
  Degree of modulation: alkaline phosphatase, liver/bone/kidney: − (moderate down-regulation (log^2 ratio of between −0.5 and −1.0))
  Degree of modulation: axin 2: − (moderate down-regulation (log^2 ratio of between −0.5 and −1.0))
  Degree of modulation: dickkopf homolog 1 (Xenopus laevis): −− (strong down-regulation (log^2 ratio of between −1.0 and −1.5))
  Degree of modulation: frizzled homolog 4 (Drosophila): − (moderate down-regulation (log^2 ratio of between −0.5 and −1.0))
  Degree of modulation: homeobox B2: − (moderate down-regulation (log^2 ratio of between −0.5 and −1.0))
  Degree of modulation: homeobox B5: − (moderate down-regulation (log^2 ratio of between −0.5 and −1.0))
  Degree of modulation: homeobox B7: − (moderate down-regulation (log^2 ratio of between −0.5 and −1.0))
  Degree of modulation: inhibitor of DNA binding 2, dominant negative helix-loop-helix protein: −− (strong down-regulation (log^2 ratio of between −1.0 and −1.5))
  Degree of modulation: mitogen-activated protein kinase kinase 3: + (moderate up-regulation (log^2 ratio of between 0.5 and 1.0))
  Degree of modulation: naked cuticle homolog 1 (Drosophila): − (moderate down-regulation (log^2 ratio of between −0.5 and −1.0))
  Degree of modulation: peroxisome proliferator-activated receptor gamma: ++ (strong up-regulation (log^2 ratio of between 1.0 and 1.5))
  Degree of modulation: prickle homolog 2 (Drosophila): − (moderate down-regulation (log^2 ratio of between −0.5 and −1.0))
SW480 cells; x at 10 μM only
  Degree of modulation: FYN oncogene related to SRC, FGR, YES: + (moderate up-regulation (log^2 ratio of between 0.5 and 1.0))
  Degree of modulation: T-cell lymphoma invasion and metastasis 1: + (moderate up-regulation (log^2 ratio of between 0.5 and 1.0))
  Degree of modulation: catenin (cadherin-associated protein), alpha-like 1: − (moderate down-regulation (log^2 ratio of between −0.5 and −1.0))
  Degree of modulation: gastrin: − (moderate down-regulation (log^2 ratio of between −0.5 and −1.0))
  Degree of modulation: low density lipoprotein receptor-related protein 5: + (moderate up-regulation (log^2 ratio of between 0.5 and 1.0))
  Degree of modulation: mitogen-activated protein kinase kinase kinase 1: + (moderate up-regulation (log^2 ratio of between 0.5 and 1.0))
  Degree of modulation: notum pectinacetylesterase homolog (Drosophila): ++ (strong up-regulation (log^2 ratio of between 1.0 and 1.5))
  Degree of modulation: secreted frizzled-related protein 5: + (moderate up-regulation (log^2 ratio of between 0.5 and 1.0))
  Degree of modulation: slowmo homolog 1 (Drosophila): − (moderate down-regulation (log^2 ratio of between −0.5 and −1.0))
  Degree of modulation: transmembrane 4 L six family member 5: ++ (strong up-regulation (log^2 ratio of between 1.0 and 1.5))
SW480 cells; x at 25 μM only
  Degree of modulation: A kinase (PRKA) anchor protein 1: + (moderate up-regulation (log^2 ratio of between 0.5 and 1.0))
  Degree of modulation: CD44 molecule (Indian blood group): + (moderate up-regulation (log^2 ratio of between 0.5 and 1.0))
  Degree of modulation: FOS-like antigen 1: + (moderate up-regulation (log^2 ratio of between 0.5 and 1.0))
  Degree of modulation: PDZ and LIM domain 1: − (moderate down-regulation (log^2 ratio of between −0.5 and −1.0))
  Degree of modulation: Sp5 transcription factor: − (moderate down-regulation (log^2 ratio of between −0.5 and −1.0))
  Degree of modulation: adenomatosis polyposis coli down-regulated 1: −− (strong down-regulation (log^2 ratio of between −1.0 and −1.5))
  Degree of modulation: baculoviral IAP repeat-containing 5: − (moderate down-regulation (log^2 ratio of between −0.5 and −1.0))
  Degree of modulation: bone morphogenetic protein 1: + (moderate up-regulation (log^2 ratio of between 0.5 and 1.0))
  Degree of modulation: bone morphogenetic protein 7: − (moderate down-regulation (log^2 ratio of between −0.5 and −1.0))
  Degree of modulation: c-abl oncogene 1, receptor tyrosine kinase: − (moderate down-regulation (log^2 ratio of between −0.5 and −1.0))
  Degree of modulation: cell division cycle 25 homolog C (S. pombe): − (moderate down-regulation (log^2 ratio of between −0.5 and −1.0))
  Degree of modulation: cell division cycle associated 8: − (moderate down-regulation (log^2 ratio of between −0.5 and −1.0))
  Degree of modulation: cyclin B2: − (moderate down-regulation (log^2 ratio of between −0.5 and −1.0))
  Degree of modulation: cyclin-dependent kinase 8: − (moderate down-regulation (log^2 ratio of between −0.5 and −1.0))
  Degree of modulation: cyclin-dependent kinase inhibitor 1B (p27, Kip1): − (moderate down-regulation (log^2 ratio of between −0.5 and −1.0))
  Degree of modulation: cysteine-rich, angiogenic inducer, 61: −−− (very strong down-regulation (log^2 ratio of between −1.5 and −2))
  Degree of modulation: disabled homolog 2, mitogen-responsive phosphoprotein (Drosophila): − (moderate down-regulation (log^2 ratio of between −0.5 and −1.0))
  Degree of modulation: dynein, axonemal, heavy chain 3: − (moderate down-regulation (log^2 ratio of between −0.5 and −1.0))
  Degree of modulation: dynein, axonemal, heavy chain 5: + (moderate up-regulation (log^2 ratio of between 0.5 and 1.0))
  Degree of modulation: dynein, light chain, LC8-type 2: − (moderate down-regulation (log^2 ratio of between −0.5 and −1.0))
  Degree of modulation: dynein, light chain, roadblock-type 1: − (moderate down-regulation (log^2 ratio of between −0.5 and −1.0))
  Degree of modulation: ephrin-A4: − (moderate down-regulation (log^2 ratio of between −0.5 and −1.0))
  Degree of modulation: ephrin-B2: ++ (strong up-regulation (log^2 ratio of between 1.0 and 1.5))
  Degree of modulation: epidermal growth factor receptor (erythroblastic leukemia viral (v-erb-b) oncogene homolog, avian): + (moderate up-regulation (log^2 ratio of between 0.5 and 1.0))
  Degree of modulation: ets variant gene 3: −− (strong down-regulation (log^2 ratio of between −1.0 and −1.5))
  Degree of modulation: fibroblast growth factor 20: − (moderate down-regulation (log^2 ratio of between −0.5 and −1.0))
  Degree of modulation: forkhead box F1: + (moderate up-regulation (log^2 ratio of between 0.5 and 1.0))
  Degree of modulation: forkhead box M1: − (moderate down-regulation (log^2 ratio of between −0.5 and −1.0))
  Degree of modulation: frizzled homolog 2 (Drosophila): −− (strong down-regulation (log^2 ratio of between −1.0 and −1.5))
  Degree of modulation: interleukin 8: ++ (strong up-regulation (log^2 ratio of between 1.0 and 1.5))
  Degree of modulation: low density lipoprotein receptor-related protein 5-like: + (moderate up-regulation (log^2 ratio of between 0.5 and 1.0))
  Degree of modulation: matrix metallopeptidase 7 (matrilysin, uterine): − (moderate down-regulation (log^2 ratio of between −0.5 and −1.0))
  Degree of modulation: met proto-oncogene (hepatocyte growth factor receptor): + (moderate up-regulation (log^2 ratio of between 0.5 and 1.0))
  Degree of modulation: mitogen-activated protein kinase kinase kinase kinase 1: − (moderate down-regulation (log^2 ratio of between −0.5 and −1.0))
  Degree of modulation: nitric oxide synthase 3 (endothelial cell): +++ (very strong up-regulation (log^2 ratio of between 1.5 and 2))
  Degree of modulation: origin recognition complex, subunit 1-like (yeast): − (moderate down-regulation (log^2 ratio of between −0.5 and −1.0))
  Degree of modulation: p53 and DNA damage regulated 1: − (moderate down-regulation (log^2 ratio of between −0.5 and −1.0))
  Degree of modulation: paired box 6: − (moderate down-regulation (log^2 ratio of between −0.5 and −1.0))
  Degree of modulation: paired related homeobox 2: − (moderate down-regulation (log^2 ratio of between −0.5 and −1.0))
  Degree of modulation: patched homolog 1 (Drosophila): − (moderate down-regulation (log^2 ratio of between −0.5 and −1.0))
  Degree of modulation: pituitary tumor-transforming 1: − (moderate down-regulation (log^2 ratio of between −0.5 and −1.0))
  Degree of modulation: plasminogen activator, urokinase: + (moderate up-regulation (log^2 ratio of between 0.5 and 1.0))
  Degree of modulation: plasminogen activator, urokinase receptor: + (moderate up-regulation (log^2 ratio of between 0.5 and 1.0))
  Degree of modulation: runt-related transcription factor 2: − (moderate down-regulation (log^2 ratio of between −0.5 and −1.0))
  Degree of modulation: sal-like 4 (Drosophila): + (moderate up-regulation (log^2 ratio of between 0.5 and 1.0))
  Degree of modulation: sex comb on midleg-like 1 (Drosophila): − (moderate down-regulation (log^2 ratio of between −0.5 and −1.0))
  Degree of modulation: snail homolog 2 (Drosophila): ++ (strong up-regulation (log^2 ratio of between 1.0 and 1.5))
  Degree of modulation: topoisomerase (DNA) II alpha 170 kDa: − (moderate down-regulation (log^2 ratio of between −0.5 and −1.0))
  Degree of modulation: tumor necrosis factor receptor superfamily, member 19: − (moderate down-regulation (log^2 ratio of between −0.5 and −1.0))
CDK2/cyclinA(h)
  activity at 10 µM: 106%
Canonical Wnt signaling; HEK293, 10 μM compound, 30% Wnt3a-CM, relative to DMSO control
  activity at 10 µM: 15.4%
Canonical Wnt signaling; HEK293, 30% Wnt3a-CM, 0.1-10 μM, read-out: IC50, reduction of canonical Wnt signaling by the ST-Luc assay
  IC50: 1000 nM
MAPK2(h)
  activity at 10 µM: 105%
SHP-1(h)
  activity at 10 µM: 102%
